Experimental data: ChEMBL document CHEMBL1201862, “PubChem BioAssay data set” (2004)
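Growth conditions: 96-well plates. Treatment: test compound, 48 hours, 5 concentrations. Analysis: linear interpolation between bracketing concentrations; unreached endpoints set to highest concentration. GI50 marks 50% less growth.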 Calls of active or inactive are those of the source. No stated cut-off is given here; in the data, active = GI50 up to about 1.1 µM and inactive = higher.

Legend:
Assay in all cases: growth of human tumour cells (NCI), 48 h
HCT-15 = tested on: HCT-15
SF-539 = tested on: SF-539
K562 = tested on: K562
SN12C = tested on: SN12C
HT-29 = tested on: HT-29
NCI-H226 = tested on: NCI-H226
A549 = tested on: A549
SF-295 = tested on: SF-295
DU-145 = tested on: DU-145
M14 = tested on: M14
MDA-MB-231 = tested on: MDA-MB-231
OVCAR-4 = tested on: OVCAR-4
OVCAR-5 = tested on: OVCAR-5
HOP-62 = tested on: HOP-62
UACC-62 = tested on: UACC-62
MOLT-4 = tested on: MOLT-4
SNB-75 = tested on: SNB-75
CCRF-CEM = tested on: CCRF-CEM
IGROV-1 = tested on: IGROV-1
NCI-H460 = tested on: NCI-H460
MDA-MB-435 = tested on: MDA-MB-435
SF-268 = tested on: SF-268
SK-OV-3 = tested on: SK-OV-3
RXF 393 = tested on: RXF 393
MCF7 = tested on: MCF7
TK-10 = tested on: TK-10
EKVX = tested on: EKVX
BT-549 = tested on: BT-549
Hs-578T = tested on: Hs-578T
HOP-92 = tested on: HOP-92
SNB-19 = tested on: SNB-19
HL-60 = tested on: HL-60
U-251 = tested on: U-251
COLO 205 = tested on: COLO 205
T47D = tested on: T47D
HCC 2998 = tested on: HCC 2998
CAKI-1 = tested on: CAKI-1
SK-MEL-5 = tested on: SK-MEL-5
MDA-N = tested on: MDA-N
SW-620 = tested on: SW-620
SK-MEL-28 = tested on: SK-MEL-28
KM12 = tested on: KM12
LOX IMVI = tested on: LOX IMVI
UACC-257 = tested on: UACC-257
RPMI-8226 = tested on: RPMI-8226
ACHN = tested on: ACHN
HCT-116 = tested on: HCT-116
786-0 = tested on: 786-0
SK-MEL-2 = tested on: SK-MEL-2
NCI-H23 = tested on: NCI-H23
OVCAR-3 = tested on: OVCAR-3
PC-3 = tested on: PC-3
UO-31 = tested on: UO-31
SR = tested on: SR
Malme-3M = tested on: Malme-3M
NCI-H522 = tested on: NCI-H522
OVCAR-8 = tested on: OVCAR-8
A498 = tested on: A498

With `CC(NC(=O)c1c(O)[nH]c(=S)[nH]c1=O)c1ccc([N+](=O)[O-])cc1` (stereo not drawn) the GI50 (HCT-15) was over 100 µM, the GI50 (SF-539) was 82.2 µM (inactive) and the GI50 (K562) was 43.7 µM (inactive). For the same molecule, the GI50 (SN12C) was > 100 µM (inactive), the GI50 (HT-29) was > 100 µM (inactive) and the GI50 (NCI-H226) was 70.1 µM (inactive). The GI50 (A549) was > 100 µM (inactive), the GI50 (SF-295) was > 100 µM (inactive) and the GI50 (DU-145) was 75.7 µM (inactive). For the same molecule, the GI50 (M14) was > 100 µM (inactive), the GI50 (MDA-MB-231) was 60.7 µM (inactive) and the GI50 (OVCAR-4) was 49 µM (inactive). The GI50 (OVCAR-5) was > 100 µM (inactive), the GI50 (HOP-62) was 58.3 µM (inactive) and the GI50 (UACC-62) was 77.3 µM (inactive). The GI50 (MOLT-4) was 29.1 µM (inactive), the GI50 (SNB-75) was 17.9 µM (inactive) and the GI50 (CCRF-CEM) was 40.8 µM (inactive). The GI50 (IGROV-1) was > 100 µM (inactive), the GI50 (NCI-H460) was > 100 µM (inactive) and the GI50 (MDA-MB-435) was > 100 µM (inactive). For the same molecule, the GI50 (SF-268) was 52.8 µM (inactive), the GI50 (SK-OV-3) was > 100 µM (inactive) and the GI50 (RXF 393) was > 100 µM (inactive). The GI50 (MCF7) was 71 µM (inactive), the GI50 (TK-10) was > 100 µM (inactive) and the GI50 (EKVX) was > 100 µM (inactive). For the same molecule, the GI50 (BT-549) was > 100 µM (inactive), the GI50 (Hs-578T) was > 100 µM (inactive) and the GI50 (HOP-92) was 39.7 µM (inactive). The GI50 (SNB-19) was 57.5 µM (inactive), the GI50 (HL-60) was > 100 µM (inactive) and the GI50 (U-251) was 32.5 µM (inactive). The GI50 (COLO 205) was > 100 µM (inactive), the GI50 (T47D) was 37.2 µM (inactive) and the GI50 (HCC 2998) was 35.8 µM (inactive). For the same molecule, the GI50 (CAKI-1) was > 100 µM (inactive), the GI50 (SK-MEL-5) was > 100 µM (inactive) and the GI50 (MDA-N) was > 100 µM (inactive). The GI50 (SW-620) was > 100 µM (inactive), the GI50 (SK-MEL-28) was > 100 µM (inactive) and the GI50 (KM12) was 47.6 µM (inactive). The GI50 (LOX IMVI) was 90.8 µM (inactive), the GI50 (UACC-257) was > 100 µM (inactive) and the GI50 (RPMI-8226) was > 100 µM (inactive). For the same molecule, the GI50 (ACHN) was > 100 µM (inactive), the GI50 (HCT-116) was 61 µM (inactive) and the GI50 (786-0) was 94.6 µM (inactive). For the same molecule, the GI50 (SK-MEL-2) was 32.5 µM (inactive), the GI50 (NCI-H23) was 88.1 µM (inactive) and the GI50 (OVCAR-3) was 36.1 µM (inactive). For the same molecule, the GI50 (PC-3) was 40.7 µM (inactive) and the GI50 (UO-31) was > 100 µM (inactive).
For `Cc1nn(C(=O)Cc2ccccc2)c2c1C(c1ccc(N(C)C)cc1)SC(=N)N2` (stereo not drawn), the GI50 (HCT-15) was over 100 µM, the GI50 (SR) was > 100 µM (inactive) and the GI50 (SF-539) was 46.1 µM (inactive). For the same molecule, the GI50 (SN12C) was > 100 µM (inactive), the GI50 (HT-29) was > 100 µM (inactive) and the GI50 (NCI-H226) was > 100 µM (inactive). The GI50 (A549) was > 100 µM (inactive), the GI50 (SF-295) was 48.8 µM (inactive) and the GI50 (DU-145) was > 100 µM (inactive). For the same molecule, the GI50 (M14) was > 100 µM (inactive), the GI50 (MDA-MB-231) was > 100 µM (inactive) and the GI50 (HOP-62) was 38.3 µM (inactive). The GI50 (Malme-3M) was > 100 µM (inactive), the GI50 (UACC-62) was 45.6 µM (inactive) and the GI50 (MOLT-4) was > 100 µM (inactive). The GI50 (SNB-75) was 12.4 µM (inactive), the GI50 (CCRF-CEM) was > 100 µM (inactive) and the GI50 (IGROV-1) was > 100 µM (inactive). The GI50 (NCI-H522) was > 100 µM (inactive), the GI50 (NCI-H460) was > 100 µM (inactive) and the GI50 (MDA-MB-435) was > 100 µM (inactive). For the same molecule, the GI50 (SF-268) was > 100 µM (inactive), the GI50 (SK-OV-3) was > 100 µM (inactive) and the GI50 (MCF7) was > 100 µM (inactive). For the same molecule, the GI50 (TK-10) was 76.6 µM (inactive), the GI50 (EKVX) was > 100 µM (inactive) and the GI50 (BT-549) was 51.5 µM (inactive). The GI50 (Hs-578T) was 24.5 µM (inactive), the GI50 (SNB-19) was > 100 µM (inactive) and the GI50 (OVCAR-8) was > 100 µM (inactive). The GI50 (HL-60) was > 100 µM (inactive), the GI50 (COLO 205) was > 100 µM (inactive) and the GI50 (T47D) was > 100 µM (inactive). For the same molecule, the GI50 (HCC 2998) was > 100 µM (inactive), the GI50 (CAKI-1) was > 100 µM (inactive) and the GI50 (A498) was > 100 µM (inactive). For the same molecule, the GI50 (SK-MEL-5) was > 100 µM (inactive), the GI50 (MDA-N) was > 100 µM (inactive) and the GI50 (SW-620) was > 100 µM (inactive). The GI50 (SK-MEL-28) was > 100 µM (inactive), the GI50 (KM12) was > 100 µM (inactive) and the GI50 (LOX IMVI) was > 100 µM (inactive). For the same molecule, the GI50 (UACC-257) was > 100 µM (inactive), the GI50 (RPMI-8226) was > 100 µM (inactive) and the GI50 (ACHN) was > 100 µM (inactive). For the same molecule, the GI50 (HCT-116) was > 100 µM (inactive), the GI50 (786-0) was > 100 µM (inactive) and the GI50 (NCI-H23) was > 100 µM (inactive). For the same molecule, the GI50 (PC-3) was > 100 µM (inactive) and the GI50 (UO-31) was > 100 µM (inactive).
